# Test system: experimental animal plasma
# Assay: In-vitro Prothrombin Time (PT) Test
# Type: biochemical
# Details: for Prothrombin Time: coagulant ingredient 1 weight % in water, 0.05 mL sample + 0.1 mL plasma, 37° C., thromboplastin added, mean of 10 repeats
# Method: An In-vitro Prothrombin Time (PT) Test has been designed to test the coagulant efficacy (see Luz, L. et at., International Journal of Biological Macromolecules, 58 (2013), p. 31-36). […] The experimental methodology used was: […] When testing the “Toothpastes” in Table 2, below, a toothpaste slurry was prepared by mixing 1 part of the toothpaste under test with 2 parts DI water (all parts being parts by weight); then the supernatant was obtained by centrifuging the slurry for 20 mins at 8000 rpm. 0.1 mL of experimental animal plasma was placed in each testing tube (animal blood samples used in the experiment were waste products, and the animals were otherwise used for food). 0.05 mL of the test samples (0.05 mL of DI water or saline solution in control group) were added to separate tubes and mixed with the plasma. The mixtures were then heated in a water bath at 37° C. for 3 min, then 0.2 mL of thromboplastin (which had been preheated to 37° C.) was added to each testing tube and the contents mixed. A stopwatch was started immediately upon adding the thromboplastin to record the coagulation time (Prothrombin Time).
Structure (SMILES),Prothrombin Time [s],clotting time compared with the controls (DI water and saline solution) (ingredient 1 weight % in water),difference in clotting time between tranexamic acid and 4-(aminomethyl) benzoic acid (ingredients 1 weight % in water)
NCc1ccc(C(=O)O)cc1 [4-(aminomethyl)benzoic acid],11.14,significantly lower clotting time than the controls,No significant difference
"NC[C@H]1CC[C@H](C(=O)O)CC1 [Tranexamic acid, tranexamic acid, reference compound]",11.66,–,–

# Source: US20170042780A1, “DENTIFRICE COMPOSITION WITH GUM BLEEDING RELIEF EFFICACY” (COLGATE-PALMOLIVE COMPANY, priority 2015, published 2017)
